Results taken from PMC9855422, “Purification and Properties of Polyphenol Oxidase of Dried Volvariella bombycina” (Biology, 2022).

Legend:
[1] = system: T1, dried V. bombycina PPO (polyphenol oxidase); assay: spectrophotometric oxidation at […] nm, Lineweaver-Burk; assay type: biochemical, Volvariella bombycina
T1 construct: single band about 25 kDa on SDS-PAGE

[2] = system: T1, dried V. bombycina PPO (polyphenol oxidase); assay: as above; assay type: biochemical, Volvariella bombycina; conditions: optimum pH 8.0, 15 °C

Cc1ccc(O)c(O)c1 [4-methyl catechol]
Km ([1]; optimum pH 9.0, 20 °C): 3170 µM

Oc1ccccc1O [catechol]
Km ([1]; optimum pH 6.5, 15 °C, 0.1 M phosphate buffer): 1670 µM

Oc1cccc(O)c1O [pyrogallol]
Km [2]: 2670 µM
